Measured values published in PMC12316777.

Key:
[1] = test system: SARS-CoV-2 variants Omicron BA.5.2 and XBB in VeroE6-TMPRSS2 cells; assay type: cell-based
[2] = target: T1, SARS-CoV-2 nsp13 (Severe acute respiratory syndrome coronavirus 2, UniProt P0DTD1); assay: BODIPY FL ATP-γ-S fluorescence assay (ATP binding); conditions: for fluorescence intensity of BODIPY FL ATP-γ-S with nsp13: 1 μM compound, 10 min pre-incubation, 10 nM BODIPY FL ATP-γ-S
[3] = target: T1, SARS-CoV-2 nsp13; assay: Metal displacement analysis (equilibrium dialysis, ICP-MS), nsp13; assay type: binding
Protocol: Nsp13 also consists of 3 zinc finger sites at its N-terminal zinc-binding domain. Therefore, we first investigated whether Au(I) could interact with zinc fingers in nsp13 by equilibrium dialysis.
Au(I) binding and Zn(II) release on nsp10 and nsp14 were determined by Inductively Coupled Plasma Mass Spectrometry (ICP-MS) on Agilent 7700 × ICP-MS (Agilent Technologies). […] Dialysis tubes loaded with 100 μL Zn-bound proteins (5 μM for nsp14 and nsp13 and 20 μM for nsp10) or protein buffer were placed into 50 mL dialysis buffer in the presence of different concentrations of Au(I) compounds (as Au(PEt3)Cl) with mild shaking at 18 °C overnight. The protein concentration was measured by bicinchoninic acid (BCA) assay, and the metal concentration of solution both inside and outside the dialysis tubes was determined by ICP-MS.

[4] = target: T2, SARS-CoV-2 nsp13 (helicase) (Severe acute respiratory syndrome coronavirus 2, UniProt P0DTD1); assay: ATPase assay (phosphate release); assay type: biochemical; conditions: for IC50: 20 nM nsp13, n = 3, read-out: IC50 (± SD) ATPase
[5] = target: T1, SARS-CoV-2 nsp13; assay: EMSA of nsp13 binding to dsDNA substrate; conditions: 2 μM nsp13, 0, 2, 10 and 20 μM compound, 2 h, 100 nM DNA
Protocol: We preincubated 2 μM nsp13 with different concentrations (0, 2, 10 and 20 μM) of Au(PEt3)Cl for 2 h at room temperature, then incubated with 100 nM DNA substrate to form the protein-dsDNA complex.
EMSA for investigating the binding between nsp13 and DNA substrates was performed as previously reported. Briefly, 2 μM nsp13 was incubated with Au(PEt3)Cl in a dose-dependent manner in 20 μL binding buffer (20 mM Tris pH 7.4, 20 mM NaCl, 1 mM TCEP, 5 mM MgCl2) for 2 h at 25 °C. Then, incubated per sample at 37 °C with 100 nM dsDNA. After 15 min incubation, the reaction was stopped by 4 μL loading buffer (50% glycerol, 0.02% bromophenol blue). The reaction mixture was electrophoresed in 8% native-polyacrylamide gels at 150 V for 1 h. The gel was stained by GelRed (Sigma Aldrich) for 10 min and images were captured by iBright™ CL750 Imaging System (Thermo Fisher Scientific).
Fig. S3 EMSA image of the binding between DNA substrate and nsp13 in the presence of increasing
amounts of Au(I)- based compound (as Au(PEt3)Cl).
(1 picture or pasted object on this page, not shown here)

[6] = target: T2, SARS-CoV-2 nsp13 (helicase); assay: FRET DNA duplex unwinding assay; assay type: biochemical; conditions: for IC50: 20 nM nsp13, n = 3, read-out: IC50 (± SD) DNA unwinding

Molecule | fluorescence intensity of BODIPY FL ATP-γ-S with nsp13 [2] | IC50 [4] | inhibition of ATPase activity ([4]; 50 mol equiv of compound) | IC50 [6] | inhibition of DNA unwinding activity ([6]; 50 mol equiv of compound) | also measured
CC(=O)OC[C@H]1O[C@@H]([S-])[C@H](OC(C)=O)[C@@H](OC(C)=O)[C@@H]1OC(C)=O.CCP(CC)CC.[Au+] [auranofin] | – | – | – | – | – | maximum reduction of viral load in the cell culture supernatant [1]: 4 − 6 log10 units
CCP(CC)CC.[Au+].[Cl-] [Au(PEt3)Cl, chloro(triethylphosphine)gold(I)] | decreased | 400 ± 90 nM | more than 50% | 330 ± 40 nM | more than 50% | fluorescence intensity of BODIPY FL ATP-γ-S with nsp13, dose dependence ([2]; 0.1, 0.2, 0.5 and 1 μM): decreased in a dose-dependent manner; Au(I) bound to nsp13 ([3]; equilibrium dialysis, ICP-MS): ca. 2.97 ± 0.20 mol equiv; Zn(II) release from nsp13 ([3]; equilibrium dialysis, ICP-MS): ca. 2.88 ± 0.18 mol equiv; maximal binding capacity (Bmax), nsp13 ([3]; nonlinear fit to specific binding plot): 3.33 ± 0.11; Kd ([3]; nonlinear fit to specific binding plot, read-out: dissociation constant (Kd), nsp13): 2290 ± 220 nM; effect on binding of nsp13 to dsDNA [5]: did not disrupt
[Cl][Au] [AuCl, gold(I) chloride] | decreased | 200 ± 10 nM | more than 50% | 200 ± 30 nM | more than 50% | –
(1-(adamantan-1-yl)thiourea)-(triethylphosphine)-gold(I) [Au-amantadine] | decreased | 1150 ± 230 nM | – | 720 ± 130 nM | – | –
O=S(=O)([O-])[S-].O=S(=O)([O-])[S-].[Au+].[Na+].[Na+].[Na+] [Na3Au(S2O3)2, gold(I) sodium thiosulfate] | decreased | 250 ± 80 nM | more than 50% | 380 ± 50 nM | more than 50% | –
CC[PH](CC)(CC)[Au][S]CC(NC(=O)CCC(N)C(=O)O)C(=O)NCC(=O)O [Au-GSH, ((R)-2-((S)-4-amino-4-carboxybutanamido)-3-((carboxymethyl)amino)-3-oxopropyl)thiolate)-(triethyl-phosphine)-gold(I)] | – | – | – | – | – | ATPase enzymatic activity remaining ([4]; 50 mol equiv of compound): 51.33%; DNA unwinding enzymatic activity remaining ([6]; 50 mol equiv of compound): 41.67%
